The test system of the assay is plants. In words: general screening of the herbicidal effect. The class given is in vivo. The conditions noted are these: 10% w/w; compared with Roundup RTU and Bayer Advanced (10% and 100% Label Rate) and untreated control; FIG. 1. On the procedure: A general screening of the herbicidal effect of the following compounds was carried out: Bayer Advanced® (100% Label Rate), Bayer Advanced® (10% Lable Rate), UTC (=untreated control), Diethyl Oxalacetate (10% w/w), Roundup® RTU (RTU=ready to use) (10% Label Rate) and Roundup® RTU (100% Label Rate).

As to `CCOC(=O)/C=C(\O)C(=O)OCC` [Diethyl Oxalacetate], the herbicidal activity entry is “comparable to well-known herbicide products such as Roundup® and Bayer Advanced®”.

Source of the values: patent publication US12514249B2, “Oxaloacetate and related compounds as herbicidal agents” (Verdesian Life Sciences U.S., LLC, priority 2020, dated 2026).
